This note sets out measurements from PMC6324787, “Deletion of genes involved in the ketogluconate metabolism, Entner-Doudoroff pathway, and glucose dehydrogenase increase local and invasive virulence phenotypes in Streptococcus pneumoniae” (PLoS ONE, 2019).

One test concerns the target T1, SP 0320 (Streptococcus pneumoniae, UniProt A0A0H2UNC9).
T1 construct: gene SP_0320
T1 sequence (A0A0H2UNC9 1-271): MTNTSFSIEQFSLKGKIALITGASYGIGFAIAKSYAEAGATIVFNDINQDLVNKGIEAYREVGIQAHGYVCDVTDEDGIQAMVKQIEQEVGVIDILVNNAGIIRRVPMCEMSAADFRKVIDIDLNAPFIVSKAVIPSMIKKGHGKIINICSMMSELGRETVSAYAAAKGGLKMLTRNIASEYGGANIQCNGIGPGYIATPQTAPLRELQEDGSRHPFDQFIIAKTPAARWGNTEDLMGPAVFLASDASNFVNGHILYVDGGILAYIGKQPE
Kind of test: NADH oxidation, A340. Format: biochemical. To be noted: 300 mM potassium 5-keto-D-gluconate, 150 µM NADH, 100 mM Tris-Cl, pH 6.5, 37 °C.

The target of another test is T2, SP 0318 (Streptococcus pneumoniae, UniProt A0A0H2UNG9).
T2 construct: gene SP_0318
T2 sequence (A0A0H2UNG9 1-333): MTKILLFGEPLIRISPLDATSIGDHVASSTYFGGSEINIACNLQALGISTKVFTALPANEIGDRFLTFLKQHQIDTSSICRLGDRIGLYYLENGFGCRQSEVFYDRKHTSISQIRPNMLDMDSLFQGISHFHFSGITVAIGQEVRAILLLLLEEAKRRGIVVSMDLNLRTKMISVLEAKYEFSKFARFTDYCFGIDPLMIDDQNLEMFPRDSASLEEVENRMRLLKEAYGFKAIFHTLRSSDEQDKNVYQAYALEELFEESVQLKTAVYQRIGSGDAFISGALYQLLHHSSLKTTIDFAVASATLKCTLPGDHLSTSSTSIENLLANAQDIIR
Kind of test: ADP-glucokinase / G6PDH-coupled NADPH formation, A340. Format: biochemical. Particulars: 10 mM KDG, 2.5 mM ATP, 10 mM MgCl2, 50 mM Tris-Cl, pH 8.5, 37 °C.

In the case of `NC(=O)C1=CN([C@@H]2O[C@H](COP(=O)(O)OP(=O)(O)OC[C@H]3O[C@@H](n4cnc5c(N)ncnc54)[C@H](O)[C@@H]3O)[C@@H](O)[C@H]2O)C=CC1` [NADH], the “NADH oxidation, A340” value at SP 0320 is “reduction of 5-keto-D-gluconate to D-gluconate with the subsequent oxidation of NADH”.

For `Nc1ncnc2c1ncn2[C@@H]1O[C@H](COP(=O)(O)OP(=O)(O)OP(=O)(O)O)[C@@H](O)[C@H]1O` [ATP], the “ADP-glucokinase / G6PDH-coupled NADPH formation, A340” value on SP 0318 was “phosphorylation of 2-keto-3-deoxygluconate (KDG) in the presence of ATP to give KDGP”.
